The target of one series is CLas BamA protein (Candidatus Liberibacter asiaticus, UniProt Q32TE9). It is filed as binding. The note with it: for Kd: read-out: KD, affinity constant.
Series [1] relates to CLas. The format is cell-based, Candidatus Liberibacter asiaticus. The note with it: 72 hours; 25, 50, 100 μg/ml.
The subject of series [2] is L. crescens.
Series [3] deals with CLas. It is filed as in vivo, Candidatus Liberibacter asiaticus. The note with it: for Reduction in CLas titers compared to SOD2* or SOD12 alone: roots of 4 months old composite plants stably expressing the STAMP.
For series [4], the target named is CLas BamA protein (Candidatus Liberibacter asiaticus). Description: BLI (BLItz), […], global fit, triplicate.
The next series relates to E. coli. Briefly: FITC-labeled peptide binding assay, fluorescence microscopy. Set-up: species or system Escherichia coli.
The subject of series [5] is R. grahamii. The format is binding, Rhizobium grahamii.
For series [6], the system named is cells in healthy citrus tree extracts. The format is binding.
The subject of series [7] is L. crescens. It is filed as binding, Liberibacter crescens.
Series [8] has as its system R. galegae. Description: FITC-labeled peptide binding assay, fluorescence microscopy. Set-up: species or system Rhizobium galegae.
Series [9] has as its system putative CLas cells in bacterial extracts from HLB-affected trees. It is filed as binding, Candidatus Liberibacter asiaticus.
The subject of series [10] is R. grahamii. The format is cell-based, Rhizobium grahamii. As to conditions: 10, 25, 50, 100 μg/ml.
Series [11] relates to R. galegae. The format is cell-based, Rhizobium galegae. The note with it: N- or C-terminus orientation.
Setting [12] is: BLI, pH 6.5 Tris buffer, mean ± SD.
[13] abbreviates: binders 16 μM, unrelated bacterium.
Setting [14] is: binders 16 μM, bacterial extracts from HLB-affected citrus trees.
The mark [15] stands for this setting: especially at lower dosages (50 μg/ml).

Entries after “also recorded” stand apart in the source; their conditions may differ. Where two headings read alike, the source gives them in different places. Ends that are not written are not given here.

Experimental findings from patent US20240349733A1 (priority 2023, published 2024) are described below.

What is called Kd is the concentration at which binding is half-saturated. For orientation: koff means a measure of how fast the partners let go of each other. The low end stands for slow dissociation, the high end for fast dissociation. The kon is the rate constant with which the complex forms. A low value points to slow association.

With DLHPQFQNLLKKSQN [ACT56869.1_241-255], on CLas BamA protein (setting [12]), the “Ka, rate of association” value was 49610 ± 1 M⁻¹ s⁻¹; the “Kd, rate of dissociation” value was 0.01167 ± 1 s⁻¹; the Kd was found to be 0.27 µM.
Turning to “RICESASYRFKGICVSRSNCANVCKNEGFPGGRCRGFRRRCLCYKHCG (cysteines drawn unpaired) [SOD12]”, the “Anti-CLas activity (relative CLas titers by qPCR)” value with CLas [1] is “ineffective or moderately effective”. Also, in the series on L. crescens [2], the “Mortality of L. crescens at lower dosage” value was “ineffective” and the “Mortality rate of L. crescens” value is given as 65-85%. Further, the “CLas titers compared to empty vector controls” value with CLas [3] (in vivo) is listed as “significantly lowered”.
In series [4], ACT57020.1_94-118 (peptide) returned a Kd of 0.209 µM, a koff of 0.0032 s⁻¹ and a kon of 15900 M⁻¹ s⁻¹.
Turning to WHVTFY [#11], the “Binding of FITC-labeled binder to E. coli” value (“Binding … to E. coli” below) in the series on E. coli (setting [13]) is “not to E. coli”. Besides, in the series with R. grahamii [5] (binders 16 μM), the “Binding of FITC-labeled binder to R. grahamii” value (“Binding … to R. grahamii” below) is “bound”. Besides, in series [6] (binders 16 μM), the “Binding of FITC-labeled binder to cells in healthy citrus tree extracts” value (“Binding of FITC-labeled binder to cells” below) was “not”. In the series on L. crescens [7] (binders 16 μM), the “Binding of FITC-labeled binder to L. crescens” value (from here on “Binding … to L. crescens”) is listed as “bound”. For the same molecule, the “Binding of FITC-labeled binder to R. galegae” value (“Binding … to R. galegae” for short) with R. galegae [8] (binders 16 μM) was “bound”. Further, the “Binding of FITC-labeled binder to CLas cells” value (“Binding … to CLas cells” below) in [9] (setting [14]) is given as “bound”.
In series [4], ACT56869.1_241-255 (peptide) came in with a Kd of 0.27 µM, a koff of 0.0117 s⁻¹ and a kon of 49600 M⁻¹ s⁻¹.
Take QSFYYVSQKKKWFPVKF [ACT56973.1_80-96]: at CLas BamA protein (setting [12]), the “Ka, rate of association” value was 852433 ± 1 M⁻¹ s⁻¹; the “Kd, rate of dissociation” value came out at 0.2111 ± 1 s⁻¹; the Kd stood at 0.247 µM.
In the case of `NC(N)=NC(=O)CC(Nc1nc(N=C(N)N)nc(NC2CCC(NC(=O)Cn3nnc(-c4ccc(F)cc4)n3)CC2)n1)C1CC1` (centres unmarked) [MRL-494, reference compound], on CLas BamA protein (setting [12]), the “Kd, rate of dissociation” value came out at 0.0813 ± 1 s⁻¹ and the Kd was found to be 6.97 µM.
“MGINGFKFLSDIHHFCS [compound 22602, MGINGFKFLSDIHHFCS]”: the “Binding … to E. coli” value in the series with E. coli is reported as “not to E. coli”. Besides, in the series on R. grahamii [5], the “Binding … to R. grahamii” value is given as “consistent binding; also recorded: bound”. The “Binding of FITC-labeled binder to cells” value in series [6] was “not”. In addition, the “Binding … to L. crescens” value in the series on L. crescens [7] is “consistent binding; also recorded: bound”. In the series on R. galegae [8], the “Binding … to R. galegae” value was “consistent binding; also recorded: bound”. Besides, in series [9], the “Binding … to CLas cells” value was “consistent binding; also recorded: bound”.
Take ACT56973.1_80-96 (peptide): in series [4], the Kd amounted to 0.247 µM, the koff was 0.211 s⁻¹ and the kon was 852000 M⁻¹ s⁻¹.
“SRNSSIALGLRRAYAVFNYFVARGI [compound 57020]”: in the series on E. coli, the “Binding … to E. coli” value is “not to E. coli”. Also, the “Binding … to R. grahamii” value in the series with R. grahamii [5] was “consistent binding; also recorded: bound”. Also, at CLas BamA protein (pH 6.5), the “Ka, rate of association” value was determined as 15857 ± 1 M⁻¹ s⁻¹; the “Kd, rate of dissociation” value was found to be 0.0032 ± 1 s⁻¹; the dissociation constant Kd was determined as 0.209 µM. In addition, the “Binding of FITC-labeled binder to cells” value in series [6] was “not”. For the same molecule, the “In vitro growth inhibition of R. grahamii, efficacy compared to SOD12 alone” value in the series on R. grahamii [10] was “significantly greater efficacy”. Besides, the “Binding … to L. crescens” value with L. crescens [7] is “consistent binding; also recorded: bound”. For the same molecule, the “Binding … to R. galegae” value in the series with R. galegae [8] is “consistent binding; also recorded: bound”. In addition, the “Binding … to CLas cells” value in [9] is reported as “consistent binding; also recorded: bound”.
On to WHVTYF [#12], for which the “Binding … to E. coli” value in the series on E. coli (setting [13]) is “not to E. coli”. In addition, the “Binding … to R. grahamii” value in the series with R. grahamii [5] (binders 16 μM) is “bound”. The “Binding of FITC-labeled binder to cells” value in [6] (binders 16 μM) was “not”. Further, the “Binding … to L. crescens” value in the series on L. crescens [7] (binders 16 μM) is listed as “bound”. In addition, the “Binding … to R. galegae” value with R. galegae [8] (binders 16 μM) is recorded as “bound”. In addition, the “Binding … to CLas cells” value in series [9] (setting [14]) is recorded as “bound”.

B1: 22602-SoD2*: STAMP, SEQ ID NO: 25; binder 22602, GGSGGS linker, SOD2* (peptide)
chain: MGINGFKFLSDIHHFCSGGSGGSGIFSSRKCKTPSKTFKGICTRDSNCDTSCRYEGYPAGDCKGIRRRCLCCTHT
Regarding B1, the “Reduction in CLas titers compared to SOD2* or SOD12 alone” value (shortened to “Reduction in CLas titers”) in the series with CLas [3] was “even greater reduction in CLas titers”.

B2: SOD12-22602: STAMP, SEQ ID NO: 22; SOD12, GGSGGS linker, binder 22602 (peptide)
chain: RICESASYRFKGICVSRSNCANVCKNEGFPGGRCRGFRRRCLCYKHCGGGSGGSMGINGFKFLSDIHHFCS
As to B2, in the series with R. galegae [11], the “Efficacy in R. galegae compared with 22602-SOD12 and SOD12-57020 (binder orientation)” value is “lower efficacy”.

B3: 57020-SoD2*: STAMP, SEQ ID NO: 27; binder 57020, GGSGGS linker, SOD2* (peptide)
chain: SRNSSIALGLRRAYAVFNYFVARGIGGSGGSGIFSSRKCKTPSKTFKGICTRDSNCDTSCRYEGYPAGDCKGIRRRCLCCTHT
As for B3, in the series on CLas [3], the “Reduction in CLas titers” value is recorded as “even greater reduction in CLas titers”.

B4: 57020-SOD12: STAMP, SEQ ID NO: 23; binder 57020, GGSGGS linker, SOD12 (peptide)
chain: SRNSSIALGLRRAYAVFNYFVARGIGGSGGSRICESASYRFKGICVSRSNCANVCKNEGFPGGRCRGFRRRCLCYKHCG
With B4, the “Efficacy in R. galegae compared with 22602-SOD12 and SOD12-57020 (binder orientation)” value with R. galegae [11] is recorded as “lower efficacy”. Besides, in the series with R. grahamii [10] (setting [15]), the “In vitro growth inhibition of R. grahamii, efficacy compared to SOD12 alone” value was “significantly greater efficacy”.

B5: 22602-SOD12: STAMP, SEQ ID NO: 21; binder 22602, GGSGGS linker, SOD12 (peptide)
chain: MGINGFKFLSDIHHFCSGGSGGSRICESASYRFKGICVSRSNCANVCKNEGFPGGRCRGFRRRCLCYKHCG
Take B5: the “Reduction in CLas titers” value in the series on CLas [3] was “even greater reduction in CLas titers”.

B6: SOD12-57020: STAMP, SEQ ID NO: 24; SOD12, GGSGGS linker, binder 57020 (peptide)
chain: RICESASYRFKGICVSRSNCANVCKNEGFPGGRCRGFRRRCLCYKHCGGGSGGSSRNSSIALGLRRAYAVFNYFVARGI
For the molecule B6, the “In vitro growth inhibition of R. grahamii, efficacy compared to SOD12 alone” value in the series with R. grahamii [10] (setting [15]) is recorded as “significantly greater efficacy”.
